{
  "source": "the NIST ThermoML archive (doi:10.1016/j.jct.2016.11.010)",
  "experiment": "mn = molality of the nth substance listed, in mol/kg",
  "settings": "100 kPa, Liquid; for speed of sound: Frequency=3 MHz, Sing-around technique in a fixed-path interferometer; for mass density: Vibrating tube method",
  "note": "Numbers after ± are expanded uncertainties.",
  "data": [
    {"smiles": "O=C([O-])CC(O)(CC(=O)[O-])C(=O)[O-].[Li+].[Li+].[Li+]", "note": "[trilithium citrate] + O", "values": [
      {"measurement": "speed of sound", "setting": "288.15 K, m1 = 0.2", "value": "1509.4 ± 4.2", "unit": "m/s"},
      {"measurement": "speed of sound", "setting": "288.15 K, m1 = 0.4", "value": "1548.6 ± 4.2", "unit": "m/s"},
      {"measurement": "speed of sound", "setting": "288.15 K, m1 = 0.6", "value": "1589.2 ± 4.2", "unit": "m/s"},
      {"measurement": "mass density", "setting": "288.15 K, m1 = 0.2", "value": "1027.57 ± 0.36", "unit": "kg/m3"},
      {"measurement": "mass density", "setting": "288.15 K, m1 = 0.4", "value": "1052.95 ± 0.37", "unit": "kg/m3"},
      {"measurement": "mass density", "setting": "288.15 K, m1 = 0.6", "value": "1078.48 ± 0.38", "unit": "kg/m3"},
      {"measurement": "speed of sound", "setting": "298.15 K, m1 = 0.2", "value": "1536 ± 4.2", "unit": "m/s"},
      {"measurement": "speed of sound", "setting": "298.15 K, m1 = 0.4", "value": "1572.7 ± 4.2", "unit": "m/s"},
      {"measurement": "speed of sound", "setting": "298.15 K, m1 = 0.6", "value": "1610.3 ± 4.2", "unit": "m/s"},
      {"measurement": "mass density", "setting": "298.15 K, m1 = 0.2", "value": "1025.15 ± 0.36", "unit": "kg/m3"},
      {"measurement": "mass density", "setting": "298.15 K, m1 = 0.4", "value": "1050.23 ± 0.37", "unit": "kg/m3"},
      {"measurement": "mass density", "setting": "298.15 K, m1 = 0.6", "value": "1075.51 ± 0.38", "unit": "kg/m3"},
      {"measurement": "speed of sound", "setting": "308.15 K, m1 = 0.2", "value": "1556.2 ± 4.2", "unit": "m/s"},
      {"measurement": "speed of sound", "setting": "308.15 K, m1 = 0.4", "value": "1590.4 ± 4.2", "unit": "m/s"},
      {"measurement": "speed of sound", "setting": "308.15 K, m1 = 0.6", "value": "1626 ± 4.2", "unit": "m/s"},
      {"measurement": "mass density", "setting": "308.15 K, m1 = 0.2", "value": "1021.94 ± 0.35", "unit": "kg/m3"},
      {"measurement": "mass density", "setting": "308.15 K, m1 = 0.4", "value": "1046.82 ± 0.36", "unit": "kg/m3"},
      {"measurement": "mass density", "setting": "308.15 K, m1 = 0.6", "value": "1071.94 ± 0.37", "unit": "kg/m3"},
      {"measurement": "speed of sound", "setting": "318.15 K, m1 = 0.2", "value": "1570.5 ± 4.2", "unit": "m/s"},
      {"measurement": "speed of sound", "setting": "318.15 K, m1 = 0.4", "value": "1602.2 ± 4.2", "unit": "m/s"},
      {"measurement": "speed of sound", "setting": "318.15 K, m1 = 0.6", "value": "1636.1 ± 4.2", "unit": "m/s"},
      {"measurement": "mass density", "setting": "318.15 K, m1 = 0.2", "value": "1017.98 ± 0.35", "unit": "kg/m3"},
      {"measurement": "mass density", "setting": "318.15 K, m1 = 0.4", "value": "1042.77 ± 0.36", "unit": "kg/m3"},
      {"measurement": "mass density", "setting": "318.15 K, m1 = 0.6", "value": "1067.78 ± 0.37", "unit": "kg/m3"}
    ]}
  ]
}
